The supplement of paper PMC10307832

Legend:
Assay in all cases: relative viability (nuclei count vs DMSO), 5 days (fraction); higher = more cells survive
Shikonin + AZD7762 = compound: CC(C)=CC[C@@H](O)C1=CC(=O)c2c(O)ccc(O)c2C1=O [Shikonin] + NC(=O)Nc1cc(-c2cccc(F)c2)sc1C(=O)N[C@H]1CCCNC1 [AZD7762] (partner 0.2 µM)
Method in brief: (§1)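 After 5 days of treatment, lung cancer cells in 1536-well plates were fixed and stained in a single step (final 0.05% Triton X-100, 1% formaldehyde, 1 ug/ml Hoechst) and their nuclei counted on 4× images. Treatment had been applied by pin tool the day after seeding as one drug alone or as a fixed anchor-drug dose with five library-drug doses (not always all listed) in √10 steps. Relative viability is the nuclei count of treated wells divided by that of vehicle wells, and values are medians of duplicate plates.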

[1] = compound: CC(C)N(CCCNC(=O)Nc1ccc(C(C)(C)C)cc1)C[C@H]1O[C@@H](n2ccc3c(N)ncnc32)[C@H](O)[C@@H]1O + N=C(N)NC(=N)NCCc1ccccc1 [Phenformin] (partner 250 µM)
Method in brief: as §1

Shikonin + Tozasertib = compound: CC(C)=CC[C@@H](O)C1=CC(=O)c2c(O)ccc(O)c2C1=O [Shikonin] + Cc1cc(Nc2cc(N3CCN(C)CC3)nc(Sc3ccc(NC(=O)C4CC4)cc3)n2)n[nH]1 [Tozasertib] (partner 0.1 µM)
Method in brief: as §1

Shikonin + Pemetrexed = compound: CC(C)=CC[C@@H](O)C1=CC(=O)c2c(O)ccc(O)c2C1=O [Shikonin] + Nc1nc2[nH]cc(CCc3ccc(C(=O)N[C@@H](CCC(=O)O)C(=O)O)cc3)c2c(=O)[nH]1 [Pemetrexed] (partner 0.2 µM)
Method in brief: as §1

Cell Line | relative viability (Shikonin + AZD7762; first compound 0.01 µM) | relative viability (Shikonin + AZD7762; first compound 0.1 µM) | relative viability (Shikonin + AZD7762; first compound 0.3162 µM) | relative viability (Shikonin + AZD7762; first compound 1 µM) | relative viability ([1]; first compound 0.08 µM) | relative viability ([1]; first compound 0.253 µM) | relative viability ([1]; first compound 0.8 µM) | relative viability ([1]; first compound 2.53 µM) | relative viability ([1]; first compound 8 µM) | relative viability (Shikonin + Tozasertib; first compound 0.01 µM) | relative viability (Shikonin + Tozasertib; first compound 0.1 µM) | relative viability (Shikonin + Tozasertib; first compound 0.3162 µM) | relative viability (Shikonin + Tozasertib; first compound 1 µM) | relative viability (Shikonin + Pemetrexed; first compound 0.01 µM) | relative viability (Shikonin + Pemetrexed; first compound 0.1 µM) | relative viability (Shikonin + Pemetrexed; first compound 0.3162 µM) | relative viability (Shikonin + Pemetrexed; first compound 1 µM)
NCI-H1915 | 0.695 | 0.752 | 0.728 | 0.729 | 0.362 | 0.388 | 0.378 | 0.388 | 0.353 | 0.444 | 0.498 | 0.454 | 0.482 | 0.442 | 0.684 | 0.517 | 0.449
NCI-H1944 | 0.454 | 0.558 | 0.763 | 0.561 | 0.223 | 0.195 | 0.199 | 0.188 | 0.198 | 0.241 | 0.22 | 0.29 | 0.257 | 0.625 | 0.719 | 0.676 | 0.572
NCI-H1975 | 0.746 | 0.683 | 0.808 | 0.8 | 0.393 | 0.387 | 0.202 | 0.393 | 0.338 | 0.865 | 0.83 | 0.764 | 0.701 | 0.315 | 0.298 | 0.286 | 0.283
NCI-H1993 | 0.524 | 0.667 | 0.632 | 0.906 | 0.464 |  |  | 0.539 | 0.498 | 0.627 | 0.547 | 0.571 | 0.551 | 0.561 | 0.619 | 0.557 | 0.627
NCI-H2085 | 1.02 | 1.06 | 0.957 | 1.05 | 0.693 | 0.592 | 0.816 | 0.789 | 0.631 | 0.758 | 0.829 | 0.868 | 0.801 | 0.88 | 0.93 | 0.868 | 0.872
NCI-H2087 | 1.38 | 1.12 | 1.35 | 1.23 | 0.38 | 0.519 | 0.445 | 0.55 | 0.351 | 0.307 | 0.254 | 0.198 | 0.202 | 0.675 | 0.706 | 0.626 | 0.69
NCI-H2126 | 1.03 | 1.01 | 1.11 | 1.08 | 0.523 | 0.529 | 0.52 | 0.534 | 0.496 | 0.91 | 0.967 | 0.869 | 0.846 | 0.758 | 0.716 | 0.777 | 0.656
NCI-H2170 | 0.912 | 0.737 | 0.975 | 0.905 | 0.445 | 0.441 | 0.416 | 0.445 | 0.396 | 0.68 | 0.494 | 0.695 | 0.739 | 0.25 | 0.284 | 0.282 | 0.272
NCI-H2342 | 0.503 | 0.451 | 0.471 | 0.472 | 0.574 | 0.553 | 0.499 | 0.532 | 0.493 | 0.408 | 0.494 | 0.502 | 0.507 | 0.808 | 0.852 | 0.809 | 0.804
NCI-H2347 | 0.77 | 0.947 | 0.829 | 0.712 | 0.536 | 0.404 | 0.369 | 0.488 | 0.254 | 0.546 | 0.504 | 0.594 | 0.558 | 0.471 | 0.479 | 0.402 | 0.44
NCI-H2405 | 0.794 | 0.986 | 0.716 | 0.77 | 0.393 | 0.324 | 0.419 | 0.409 | 0.345 | 0.768 | 0.802 | 0.779 | 0.687 | 1.05 | 1.31 | 1.06 | 1.13
NCI-H3122 | 0.973 | 1.07 | 1.05 | 0.959 | 0.39 | 0.384 | 0.367 | 0.366 | 0.358 | 0.359 | 0.431 | 0.462 | 0.51 | 0.215 | 0.219 | 0.209 | 0.209
PC-3 [JPC-3] | 0.825 | 0.846 | 0.755 | 1 | 0.478 | 0.491 | 0.495 | 0.451 | 0.488 | 0.883 | 0.984 | 1.01 | 0.94 | 1.21 | 1.44 | 1.05 | 1.63
PC-14 | 0.381 | 0.274 | 0.438 | 0.576 | 0.637 | 0.544 | 0.556 | 0.454 | 0.532 | 0.619 | 0.638 | 0.743 | 0.652 | 0.15 | 0.137 | 0.125 | 0.135
RERF-LC-KJ | 1.04 | 0.788 | 1.26 | 1.02 | 0.384 | 0.378 | 0.422 | 0.386 | 0.395 | 0.55 | 0.44 | 0.499 | 0.388 | 0.47 | 0.512 | 0.465 | 0.549
SW 900 | 0.769 | 0.634 | 0.262 | 0.542 | 0.719 | 0.634 |  | 0.541 | 0.486 | 0.546 | 0.458 | 0.527 | 0.536 | 0.422 | 0.548 | 0.468 | 0.535
